Results published in ChEMBL document CHEMBL1201862, “PubChem BioAssay data set” (2004).
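Following 48 hours of exposure in 96-well plates, responses at five concentrations were used to interpolate endpoints linearly. The concentration for 50% growth inhibition is given as GI50.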 Active and inactive are the calls of the source. Rule as the data show it: active = GI50 up to about 1.1 µM and inactive = higher.

What was measured:
Test in all cases: DTP human tumour cell line panel, 48 h
[1] = tested on: RPMI-8226
[2] = tested on: MDA-MB-231
[3] = tested on: UACC-62
[4] = tested on: OVCAR-3
[5] = tested on: BT-549
[6] = tested on: KM12
[7] = tested on: PC-3
[8] = tested on: TK-10
[9] = tested on: OVCAR-8
[10] = tested on: LOX IMVI
[11] = tested on: M14
[12] = tested on: SK-MEL-28
[13] = tested on: MCF7
[14] = tested on: HOP-62
[15] = tested on: MDA-N
[16] = tested on: Malme-3M
[17] = tested on: SF-295
[18] = tested on: HCC 2998
[19] = tested on: NCI-H226
[20] = tested on: NCI-H522

Row | Compound | GI50 [1] | GI50 [2] | GI50 [3] | GI50 [4] | GI50 [5] | GI50 [6] | GI50 [7] | GI50 [8] | GI50 [9] | GI50 [10] | GI50 [11] | GI50 [12] | GI50 [13] | GI50 [14] | GI50 [15] | GI50 [16] | GI50 [17] | GI50 [18] | GI50 [19] | GI50 [20]
1 | CCSc1nc(N)c2c(-c3ccc(OC)c(OC)c3)c3c(nc2n1)CCCC3 | > 100 µM (inactive) | > 100 µM (inactive) | > 100 µM (inactive) | > 100 µM (inactive) | > 100 µM (inactive) | > 100 µM (inactive) | > 100 µM (inactive) | > 100 µM (inactive) | > 100 µM (inactive) | > 100 µM (inactive) | > 100 µM (inactive) | > 100 µM (inactive) | > 100 µM (inactive) | > 100 µM (inactive) | > 100 µM (inactive) | > 100 µM (inactive) | > 100 µM (inactive) | – | – | –
2 | COC(=O)C1=C(O)C(C(=O)OC)[C@]2(O)[C@@H](C(=O)OC)[C@H]1C[C@@H](c1ccccc1)[C@@H]2C(=O)OC (some centres not stated) | 9.73 µM (inactive) | 16.1 µM (inactive) | 11.9 µM (inactive) | 13.8 µM (inactive) | 15.8 µM (inactive) | 11.7 µM (inactive) | – | 23.7 µM (inactive) | – | 15.4 µM (inactive) | 10.8 µM (inactive) | 20.9 µM (inactive) | 5.93 µM (inactive) | 20 µM (inactive) | 5.01 µM (inactive) | 18.2 µM (inactive) | – | 14.2 µM (inactive) | 18.6 µM (inactive) | 6.71 µM (inactive)
3 | Cc1c(OCc2ccccc2)c(=O)ccn1CCc1c[nH]c2ccccc12 | 31.9 µM (inactive) | 34.1 µM (inactive) | 27.4 µM (inactive) | 18.5 µM (inactive) | 44.6 µM (inactive) | 33.7 µM (inactive) | 30.9 µM (inactive) | 40.6 µM (inactive) | 53 µM (inactive) | 44.6 µM (inactive) | 30 µM (inactive) | – | 18.5 µM (inactive) | > 100 µM (inactive) | 28.7 µM (inactive) | 22.1 µM (inactive) | 56.4 µM (inactive) | – | – | 21.3 µM (inactive)
4 | COC(=O)C1(c2ccc(N(C)C)cc2OC)CCCN(C(=O)Oc2ccccc2[N+](=O)[O-])CCc2c1[nH]c1ccccc21 (configuration not stated) | – | > 100 µM (inactive) | > 100 µM (inactive) | > 100 µM (inactive) | > 100 µM (inactive) | > 100 µM (inactive) | > 100 µM (inactive) | > 100 µM (inactive) | > 100 µM (inactive) | > 100 µM (inactive) | > 100 µM (inactive) | > 100 µM (inactive) | > 100 µM (inactive) | > 100 µM (inactive) | > 100 µM (inactive) | > 100 µM (inactive) | > 100 µM (inactive) | > 100 µM (inactive) | > 100 µM (inactive) | > 100 µM (inactive)
5 | COc1cc(C)cc2c1C(=O)C(NC(C)=O)=CC2=O | > 100 µM (inactive) | 98.4 µM (inactive) | 58.7 µM (inactive) | > 100 µM (inactive) | > 100 µM (inactive) | > 100 µM (inactive) | > 100 µM (inactive) | > 100 µM (inactive) | > 100 µM (inactive) | – | > 100 µM (inactive) | > 100 µM (inactive) | 67.1 µM (inactive) | > 100 µM (inactive) | 18.1 µM (inactive) | > 100 µM (inactive) | > 100 µM (inactive) | > 100 µM (inactive) | > 100 µM (inactive) | > 100 µM (inactive)
6 | COC(CN(C(C)=O)C1CCC2(SCCS2)c2[nH]c3ccccc3c21)OC (configuration not stated) | > 100 µM (inactive) | > 100 µM (inactive) | – | > 100 µM (inactive) | > 100 µM (inactive) | > 100 µM (inactive) | > 100 µM (inactive) | > 100 µM (inactive) | > 100 µM (inactive) | 0.0422 µM (active) | > 100 µM (inactive) | > 100 µM (inactive) | > 100 µM (inactive) | > 100 µM (inactive) | > 100 µM (inactive) | > 100 µM (inactive) | 0.207 µM (active) | > 100 µM (inactive) | > 100 µM (inactive) | > 100 µM (inactive)
7 | O=c1ccn(CC2(CO)CC(Cc3ccccc3)C2)c(=O)[nH]1 (configuration not stated) | > 100 µM (inactive) | > 100 µM (inactive) | > 100 µM (inactive) | > 100 µM (inactive) | > 100 µM (inactive) | > 100 µM (inactive) | > 100 µM (inactive) | > 100 µM (inactive) | > 100 µM (inactive) | > 100 µM (inactive) | – | > 100 µM (inactive) | > 100 µM (inactive) | > 100 µM (inactive) | > 100 µM (inactive) | > 100 µM (inactive) | > 100 µM (inactive) | > 100 µM (inactive) | > 100 µM (inactive) | > 100 µM (inactive)
